Experimental data published in article PMC10790670 (Environmental science & technology, 2023).
“And” between values parts separate entries of the source, which are not always exact repeats. Equal entries are not always repeated. Where two headings read alike, the source gives them in different places. Marks after values point to notes of the source that are not given here.

Key:
[1] = predicted values from EPA Chemistry Dashboard; cited from earlier work
[2] = cited from earlier work; for published half-lives: biological half-lives quoted in abstract
[3] = Serum PFAS measurement by LC-HRMS, GenX Exposure Study participants; conditions: human, in vivo
[4] = experimental values from EPA Chemistry Dashboard; cited from earlier work
[5] = both, human, in vivo
[6] = weighted average, ref Zhang et al. 16
[7] = literature serum half-life, ref Li et al. 19
[8] = literature serum half-life, ref Li et al. 12

SMILES: O=C(O)C(F)(OC(F)(F)C(F)(F)C(F)(F)F)C(F)(F)F (stereo not shown) [GenX, hexafluoropropylene oxide dimer acid]
- logKow [1]: 5.13^a
- half-life ([2]; in workers, ECHA estimate): 81 h
- half-life ([2]; values from ECHA report): 3.375^f days and 3.38^e days

SMILES: O=S(=O)(O)C(F)(F)C(F)(F)OC(F)C(F)(F)F (stereo not shown) [NVHOS, 1,1,2,2-tetrafluoro-2-(1,2,2,2-tetrafluoroethoxy)ethanesulfonic acid]
- concentration at 5 months [3]: 1.14 ng/mL
- logKow [1]: 2.58^a

SMILES: O=S(=O)(O)C(F)(F)C(F)(F)C(F)(F)C(F)(F)F [PFBS, perfluorobutanesulfonic acid]
- logKow [4]: 2.76^b
- half-life ([2]; ref Olsen et al. 54): 26^h days

SMILES: O=C(O)C(F)(F)C(F)(F)C(F)(F)C(F)(F)C(F)(F)C(F)(F)C(F)(F)C(F)(F)C(F)(F)F [PFDA]
- logKow [4]: 4.15^b
- half-life [2, 6]: 3743^i days

SMILES: O=C(O)C(F)(F)C(F)(F)C(F)(F)C(F)(F)C(F)(F)C(F)(F)F [PFHpA, perfluoroheptanoic acid]
- logKow [4]: 2.05^b
- published half-lives [2]: 30 to 60 days
- half-life [2, 6]: 464^i days

SMILES: O=S(=O)(O)C(F)(F)C(F)(F)C(F)(F)C(F)(F)C(F)(F)C(F)(F)C(F)(F)F [PFHpS]
- logKow [1]: 4.85^a
- half-life [2, 7]: 533^e days

SMILES: O=C(O)C(F)(F)C(F)(F)C(F)(F)C(F)(F)C(F)(F)F [PFHxA, perfluorohexanoic acid]
- logKow [1]: 2.8^a
- published half-lives [2]: 30 to 60 days
- half-life ([2]; ref Russel et al. 52): 32^g days

SMILES: O=S(=O)(O)C(F)(F)C(F)(F)C(F)(F)C(F)(F)C(F)(F)C(F)(F)F [PFHxS, perfluorohexanesulfonic acid]
- logKow [1]: 3.48^a
- half-life [2, 7]: 1661^e days

SMILES: O=C(O)C(F)(F)C(F)(F)C(F)(F)C(F)(F)C(F)(F)C(F)(F)C(F)(F)C(F)(F)F [PFNA, perfluorononanoic acid]
- logKow [4]: 3.54^b
- half-life [2, 6]: 1417^i days

SMILES: O=C(O)C(F)(F)OC(F)(F)OC(F)(F)OC(F)(F)F [PFO3OA, perfluoro-3,5,7-trioxaoctanoic acid]
- concentration at 5 months [3]: 1.02 ng/mL
- logKow [1]: 6.07^a

SMILES: O=C(O)C(F)(F)OC(F)(F)OC(F)(F)OC(F)(F)OC(F)(F)F [PFO4DA, perfluoro-3,5,7,9-tetraoxadecanoic acid]
- concentration at 5 months [3]: 5.6 ng/mL
- concentration at 11 months [3]: 1.16 ng/mL
- logKow [1]: 8.53^a
- effect of age on concentration [5]: 0.0129 ng/mL/year
- effect of gender concentration in males [5]: 0.376 ng/mL

SMILES: O=C(O)C(F)(F)OC(F)(F)OC(F)(F)OC(F)(F)OC(F)(F)OC(F)(F)F [PFO5DoA, perfluoro-3,5,7,9,11-pentaoxadodecanoic acid]
- concentration at 5 months [3]: 12.4 ng/mL
- concentration at 11 months [3]: 8.91 ng/mL
- effect of age on concentration [5]: 0.0160 ^* ng/mL/year
- effect of gender concentration in males [5]: 0.298 ng/mL

SMILES: O=C(O)C(F)(F)C(F)(F)C(F)(F)C(F)(F)C(F)(F)C(F)(F)C(F)(F)F [PFOA, perfluorooctanoic acid]
- logKow [4]: 3.1^b
- published half-lives [2]: 800 to 1200 days
- half-life [2, 8]: 902^c days
- half-life [2, 7]: 902^e days

SMILES: O=S(=O)(O)C(F)(F)C(F)(F)C(F)(F)C(F)(F)C(F)(F)C(F)(F)C(F)(F)C(F)(F)F [PFOS, perfluorooctanesulfonic acid]
- logKow [4]: 5.61^b
- published half-lives [2]: 800 to 1200 days
- half-life [2, 8]: 1241^d days

SMILES: O=S(=O)(O)C(F)(F)C(F)(F)C(F)(F)C(F)(F)C(F)(F)F [PFPeS]
- logKow [1]: 3.38^a
- half-life [2, 7]: 343^e days

SMILES: O=C(O)C(F)(F)C(F)(F)C(F)(F)C(F)(F)C(F)(F)C(F)(F)C(F)(F)C(F)(F)C(F)(F)C(F)(F)F [PFUnA]
- logKow [4]: 4.00^b
- half-life [2, 6]: 3743^i days
